Results: US10011562B2, “Long-chain dimethylaniline derivative compounds, their preparation methods, self-assembled textures, and uses thereof” (WEST CHINA HOSPITAL, SICHUAN UNIVERSITY, priority 2014, dated 2018)

Experiments:
Format in all cases: in vivo
sciatic nerve of rats [1] = assay: First local anesthetic experiment of rats: blocking of sciatic nerve, motor function by hindlimb postural extensor thrust (PET)
Protocol: (§1) Selected above micelle, positive control lidocaine, and negative control normal saline were respectively administrated to 28 groups of test rats fully adapted to experiment environment, with five rats for each group. The administration dosage is: the concentration of lidocaine group being 2% aqueous solution (84 mmol/L), and the concentration of tested drug being 5 mmol/L. The injection volume of each rat receiving drugs or the control was 0.2 ml, and the drug or the control was injected to close to sciatic nerve of rats by guidance of nerve locator.
(§2) The tested rats were placed on bench board and allowed to inhale 5% isoflurane. After body-righting reflex abolition, rats are allowed to continue inhaling 1.5% isoflurane, to keep anesthesia. Keeping left-lateral position, their corresponding injection area sacrococygeal region was shaved, then routine sterilization and draping were performed. Two osseous anatomic landmarks greater trochanter of femur and tuber is chiadicum were laid hands, and the middle point of this line was the needle insertion position. If skin was taut, 1 ml injector was inserted along perpendicular of skin. When needlepoint reached hucklebone, the insertion was finished. […] Needle was lifted, and is oflurane was shut off. Animals were placed in observation cage until they naturally awakened.
(§3) The hindlimb postural extensor thrust (PET) was used for evaluation. Rats were lifted vertically and their hindlimbs of injection side stepped on the top of electronic balance. At this time, the postural extensor thrust was shown as the value of balance. When limbs were completely paralytic, the digital reading was the weight of limbs, about 20 g. If the test value was more than half of the difference between the baseline and the limbs weight, the motor function was taken as recovery; If less than or equal to half of the difference, the motor function was taken as deprivation.
(§4) The interval between completion of injection and the time point that the motor function was firstly deprivated was the time of effective motor blocking; the interval between completion of injection and the time point that the motor function was firstly recovered was the time of ineffective motor blocking; their difference was the hold time of motor blocking.

sciatic nerve of rats [2] = assay: First local anesthetic experiment of rats: blocking of sciatic nerve, mechanical withdrawal threshold (VFH, von Frey filaments)
Protocol: as §1, §2
(§5) Rats were placed in transparent observation cages with a bottom of smooth metal sieve plate, and the corrected von frey filament was used to stimulate the foot lateral skin of rats (innervated region of sciatic nerve) from down to up. […] For each stimulation, slightly bent of filament was used as a standard, or rats moved aside this side of limbs. Otherwise, once the stimulation time reached 3 s, operator stopped stimulating. Three tests were carried out for each time point, and the interval between two tests was 5 min, to avoid sensibilization.
(§6) If the mechanical withdrawal threshold value was more than 60 g, the nerve blocking was considered as effective.

sciatic nerve of rats [3] = assay: Third local anesthetic experiment of rats: hydrogels embedded near the sciatic nerve, mechanical withdrawal threshold (VFH)
Protocol: as §5, §6
(§7) 25 mmol/L transparent uniform hydrogels of products obtained in Examples 7-10 and 13-32 were prepared under sterile conditions, as the method of Example 45, and kept for use.
(§8) Above hydrogels, positive control lidocaine, and negative control normal saline were respectively administrated to 35 groups of test rats fully adapted to experiment environment, with five rats for each group. The administration dosage is: the concentration of lidocaine group being 2% aqueous solution (84 mmol/L). The injection volume of each rat receiving drugs or the control was […], and the control was injected to near the sciatic nerve of rats by guidance of nerve locator; by surgery, the gels were embedded near the sciatic nerve of experimental rats after general anesthesia using sevoflurane. Specific procedures and the evaluation criterion for local anesthetic effect were same as mentioned in Example 60.

sciatic nerve of rats [4] = assay: Third local anesthetic experiment of rats: hydrogels embedded near the sciatic nerve, motor function (PET)
Text: as §3, §4, §7, §8

[5] = rats, 0.2 ml injected close to sciatic nerve, tested drug 5 mmol/L solution (micelle), lidocaine 2% (84 mmol/L)
[6] = rats, 0.2 ml injected close to sciatic nerve, tested drug 5 mmol/L solution (micelle), lidocaine 2% (84 mmol/L), threshold above 60 g
[7] = rats, 0.2 ml injected close to sciatic nerve, tested drug 5 mmol/L solution (micelle), lidocaine 2% aqueous solution (84 mmol/L)
[8] = rats, 25 mmol/L hydrogel, 0.2 g embedded by surgery near sciatic nerve, lidocaine 2% (84 mmol/L) injected

| SMILES | The hold time of motor blocking (sciatic nerve of rats [1]; rat, in vivo) [h] | Effective local anesthetic time (sciatic nerve of rats [2]; rat, in vivo) [min] | The hold time of sensation blocking (sciatic nerve of rats [2]; rat, in vivo) [h] | Effective local anesthetic time (sciatic nerve of rats [3]; rat, in vivo) [min] | The hold time of sensation blocking (sciatic nerve of rats [3]; rat, in vivo) [h] | The hold time of motor blocking (sciatic nerve of rats [4]; rat, in vivo) [h] | The hold time of motor blocking (sciatic nerve of rats [1]; [5]) [h] | The hold time of sensation blocking (sciatic nerve of rats [2]; [6]) [h] | Effective local anesthetic time (sciatic nerve of rats [2]; [7]) [min] | Effective local anesthetic time (sciatic nerve of rats [3]; [8]) [min] | The hold time of sensation blocking (sciatic nerve of rats [3]; [8]) [h] | The hold time of motor blocking (sciatic nerve of rats [4]; [8]) [h] |
| --- | --- | --- | --- | --- | --- | --- | --- | --- | --- | --- | --- | --- |
| CC[N+](CC)(COC(=O)C(C)(C)C)CC(=O)Nc1c(C)cccc1C [Example5product] | 8 | 18 | 8 | – | – | – | – | – | – | – | – | – |
| CCCCCCCCCCCCCCCCOC(=O)OCC[N+](CC)(CC)CC(=O)Nc1c(C)cccc1C [Example29product] | 80 | 20 | 78 | 92 | 86 | 84 | – | – | – | – | – | – |
| CCCCCCCCCOC(=O)OCC[N+](CC)(CC)CC(=O)Nc1c(C)cccc1C [Example21product] | – | – | – | – | – | – | 60 | 82 | 18 | 75 | 88 | 79 |
| CCCCCCCCCOC(=O)OCC[N+](CC)(CC)CC(=O)Nc1c(C)cccc1C [Example22product] | – | – | – | – | – | – | 61 | 81 | 18 | 78 | 95 | 87 |
| CCCCCCCCCCCCCCCC(=O)OCC[N+](CC)(CC)CC(=O)Nc1c(C)cccc1C [Example10product] | 81 | 20 | 81 | 85 | 80 | 72 | – | – | – | – | – | – |
| CCCCCCCCCCCCCCCCCCOC(=O)OCC[N+](CC)(CC)CC(=O)Nc1c(C)cccc1C [Example31product] | 80 | 20 | 78 | 92 | 83 | 78 | – | – | – | – | – | – |
| CCCCCCCCCCCCOC(=O)OCC[N+](CC)(CC)CC(=O)Nc1c(C)cccc1C [Example27product] | 80 | 20 | 78 | 90 | 83 | 76 | – | – | – | – | – | – |
| CCCCCCOC(=O)OCC[N+](CC)(CC)CC(=O)Nc1c(C)cccc1C [Example13product] | 79 | 19 | 79 | 45 | 80 | 76 | – | – | – | – | – | – |
| CC[N+](CC)(CCOC(C)=O)CC(=O)Nc1c(C)cccc1C [Example6product] | – | – | – | – | – | – | 72 | 72 | 20 | – | – | – |
| CCCCCCCCCOC(=O)OCC[N+](CC)(CC)CC(=O)Nc1c(C)cccc1C [Example19product] | 56 | 16 | 82 | 65 | 90 | 88 | – | – | – | – | – | – |
| CCCCCCCOC(=O)OCC[N+](CC)(CC)CC(=O)Nc1c(C)cccc1C [Example15product] | 66 | 17 | 81 | 53 | 81 | 79 | – | – | – | – | – | – |
| CCCCCCCCCCCOC(=O)OCC[N+](CC)(CC)CC(=O)Nc1c(C)cccc1C [Example25product] | 80 | 20 | 81 | 82 | 83 | 79 | – | – | – | – | – | – |
| CCCCCCCCCCOC(=O)OCC[N+](CC)(CC)CC(=O)Nc1c(C)cccc1C [Example23product] | 62 | 20 | 82 | 80 | 92 | 76 | – | – | – | – | – | – |
| CCCCCCCOC(=O)OCC[N+](CC)(CC)CC(=O)Nc1c(C)cccc1C [Example14product] | 70 | 15 | 82 | 45 | 81 | 76 | – | – | – | – | – | – |
| CCCCCCCCCOC(=O)OCC[N+](CC)(CC)CC(=O)Nc1c(C)cccc1C [Example18product] | 60 | 16 | 88 | 60 | 83 | 79 | – | – | – | – | – | – |
| CCCCOC(=O)OCC[N+](CC)(CC)CC(=O)Nc1c(C)cccc1C [Example12product] | 80 | 20 | 80 | – | – | – | – | – | – | – | – | – |
| CCCCCCCCCCCC(=O)OCC[N+](CC)(CC)CC(=O)Nc1c(C)cccc1C [Example9product] | 80 | 20 | 80 | 75 | 98 | 80 | – | – | – | – | – | – |
| CCCCCCCCCCOC(=O)OCC[N+](CC)(CC)CC(=O)Nc1c(C)cccc1C [Example24product] | 75 | 20 | 82 | 78 | 87 | 79 | – | – | – | – | – | – |
| CCOC(=O)OCC[N+](CC)(CC)CC(=O)Nc1c(C)cccc1C [Example11product] | 82 | 20 | 82 | – | – | – | – | – | – | – | – | – |
| CCCC(=O)OC[N+](CC)(CC)CC(=O)Nc1c(C)cccc1C [Example4product] | 8 | 20 | 8 | – | – | – | – | – | – | – | – | – |
